Source: patent publication US20070059756A1, “Immunointeractive molecules and their uses in treating subjects suffering from Hev b 5 allergies” (priority 1999, published 2007)

Tests used:
Assay type in all cases: cell-based, human
[1] = test system: latex specific T cell lines; experiment: Oligoclonal T cell proliferation assay (3H-thymidine incorporation); parameters: key to Proliferation inducing (+) or non-inducing (−) peptide: Proliferation inducing and non-inducing peptides are indicated by (+) and (−) respectively; Proliferation inducing and non-inducing peptides are indicated by (+) and (−) respectively; details: for Oligoclonal proliferative response: 4 day cultures
Procedure: Latex specific T cell lines were isolated using our well established methods for the generation of allergen specific oligoclonal T cell populations (O'Hehir et al., 1987). An initial primary culture was performed for each patient to determine the optimal concentration of LAL for stimulation. For this, peripheral blood mononuclear cells (PBMC) separated from heparinised venous blood by density centrifugation (2×10^5/well) were stimulated with LAL over a concentration range 0.03 to 100 μg/ml, with control cultures of PBMC alone or stimulated with tetanus toxoid. All cultures were maintained in complete medium (RPMI-1640, Gibco Life Technologies supplemented with 2 mmol/L L-glutamine, 100 IU/ml penicillin-streptomycin and 5% screened, heat inactivated human AB serum [Sigma]). […] Therefore, to generate T cell lines, PBMC (2.5×10^6/well) were stimulated for 1 week with LAL at a concentration of 20 μg/ml in 24-well tissue culture plates (Costar, USA). After 7 days, lymphoblasts (1×10^6/well) were restimulated for one week with LAL at a concentration of 20 μg/ml in the presence of an equal number of irradiated (3000 rad) autologous PBMC as antigen presenting cells (APC). On days 2 and 4, cultures were supplemented with Lymphocult-T (5% v/v; Biotest Folex, Germany) and fresh medium. At the end of the second week, lymphoblasts were restimulated for one week with rhev b 5/MBP at a concentration of 20 μg/ml as described above. Oligoclonal T cells were recovered, washed and tested in proliferation and cytokine assays (as described below) either fresh or after cryopreservation in liquid nitrogen. We have previously shown that CD4^+ T cells are preferentially expanded in these cultures.
Oligoclonal T cell blasts (5×10^4) were incubated in 96-well round bottom plates (Linbro, ICN Biomedicals, USA) in triplicate with equal numbers of irradiated APC in the presence of LAL at concentrations ranging from 0.03-100 μg/ml, rHev b 5/MBP (10 and 20 μg/ml), MBP (10 and 20 μg/ml), overlapping peptides of the Hev b 5 sequence (10 and 30 μg/ml), Lymphocult-T (10 IU/ml) or PHA (3 μg/ml). Cultures of T cells and APC in the absence of antigen, T cells alone and APC alone in the absence of antigen were included as controls. After 72 hours cultures were pulsed with 1 μCi of ^3H-thymidine (^3HTdR; Du Pont, NEN) and harvested 12-16 hours later. Proliferation as correlated with ^3HTdR incorporation was measured by liquid scintillation spectroscopy. Results are expressed as mean counts per minute (cpm) for triplicate cultures with standard deviation (SD; ±20% for all experiments).

[2] = test system: IL-5; experiment: IL-5 production by latex specific oligoclonal T cells (ELISA on culture supernatants); details: for IL-5: supernatant at 48 hours; for secretion of IL-5 (in words): patient 4 T cell line
Procedure: (§1) Representative stimulatory and non-stimulatory peptides were selected and T cells cultured in triplicate with these peptides. At 48 hours 50 μl of supernatant was harvested from the cultures and IL-5 and IFNγ were assayed by ELISA using paired cytokine antibodies (from Pharmingen Becton Dickinson, USA and Endogen, USA respectively). For this, opaque flat bottom ELISA plates (Nalgene, Nunc International) were coated with 30 μl capture antibody at 2 μg/ml in 0.1 M NaHCO3 pH 8.2 coating buffer overnight at 4° C. After washing three times with PBS/0.5% Tween the wells were blocked with 3% BSA/PBS at room temperature for 2 hours. The plates were washed and 30 μL pooled triplicate culture supernatants added in duplicate. […] Light emission was read immediately on a Lumicount microplate Glow Luminometer (Packard Instrument Company). A standard curve was run each time using known concentrations of standard cytokine samples and the concentrations of IL-S and IFNγ in the culture supernatants calculated accordingly. The lower limit of detection of the IL-5 assay was 20 pg/ml and the lower limit of detection of the IFN-γ assay was 2 pg/ml.

[3] = test system: IFNγ; experiment: IFNγ production by latex specific oligoclonal T cells (ELISA on culture supernatants); details: supernatant at 48 hours
Procedure: as §1

[4] = P1 T cell line, antigen 10 μg/ml
[5] = P1 T cell line, antigen 30 μg/ml
[6] = P2 T cell line, antigen 10 μg/ml
[7] = P2 T cell line, antigen 30 μg/ml
[8] = P3 T cell line, antigen 10 μg/ml
[9] = P3 T cell line, antigen 30 μg/ml
[10] = P4 T cell line, antigen 10 μg/ml
[11] = P4 T cell line, antigen 30 μg/ml
[12] = P5 T cell line, antigen 10 μg/ml
[13] = P5 T cell line, antigen 30 μg/ml
[14] = P6 T cell line, antigen 10 μg/ml
[15] = P6 T cell line, antigen 30 μg/ml
[16] = P1 T cell line, peptide 10 μg/ml
[17] = P1 T cell line, peptide 30 μg/ml
[18] = P2 T cell line, peptide 10 μg/ml
[19] = P2 T cell line, peptide 30 μg/ml
[20] = P4 T cell line, peptide 10 μg/ml
[21] = P4 T cell line, peptide 30 μg/ml

AEEEKPITEAAETATTEVPV [Hev b 5 (127-146)]
Oligoclonal proliferative response [1, 4]: 3.3 counts per minute × 10^−3 | Oligoclonal proliferative response [1, 5]: 4.4 counts per minute × 10^−3 | Oligoclonal proliferative response [1, 6]: 3.8 counts per minute × 10^−3 | Oligoclonal proliferative response [1, 7]: 6.6 counts per minute × 10^−3 | Oligoclonal proliferative response [1, 8]: 7.1 counts per minute × 10^−3 | Oligoclonal proliferative response [1, 9]: 8.3 counts per minute × 10^−3 | Oligoclonal proliferative response [1, 10]: 2.2 counts per minute × 10^−3 | Oligoclonal proliferative response [1, 11]: 1.6 counts per minute × 10^−3 | Oligoclonal proliferative response [1, 12]: 2.7 counts per minute × 10^−3 | Oligoclonal proliferative response [1, 13]: 2.5 counts per minute × 10^−3 | Oligoclonal proliferative response [1, 14]: 1.0 counts per minute × 10^−3 | Oligoclonal proliferative response [1, 15]: 0.8 counts per minute × 10^−3

APAEPEAPAPETEKAEEVEK [Hev b 5 (55-74)]
Proliferation inducing (+) or non-inducing (−) peptide ([1]; P1 T cell line): 55-74 (−) | Oligoclonal proliferative response [1, 4]: 5.0 counts per minute × 10^−3 | Oligoclonal proliferative response [1, 5]: 7.7 counts per minute × 10^−3 | Proliferation inducing (+) or non-inducing (−) peptide ([1]; P2 T cell line): 55-74 (−) | Oligoclonal proliferative response [1, 6]: 2.8 counts per minute × 10^−3 | Oligoclonal proliferative response [1, 7]: 5.6 counts per minute × 10^−3 | Oligoclonal proliferative response [1, 8]: 9.1 counts per minute × 10^−3 | Oligoclonal proliferative response [1, 9]: 8.2 counts per minute × 10^−3 | Proliferation inducing (+) or non-inducing (−) peptide ([1]; P4 T cell line): 55-74 (+) | Oligoclonal proliferative response [1, 10]: 2.0 counts per minute × 10^−3 | Oligoclonal proliferative response [1, 11]: 2.8 counts per minute × 10^−3 | Oligoclonal proliferative response [1, 12]: 1.1 counts per minute × 10^−3 | Oligoclonal proliferative response [1, 13]: 0.7 counts per minute × 10^−3 | Oligoclonal proliferative response [1, 14]: 0.7 counts per minute × 10^−3 | Oligoclonal proliferative response [1, 15]: 0.9 counts per minute × 10^−3 | IL-5 [2, 16]: 0 pg/mL | IL-5 [2, 17]: 0 pg/mL | IL-5 [2, 18]: 0 pg/mL | IL-5 [2, 19]: 0 pg/mL | IL-5/IFNγ ratio [2, 20]: 70 | IL-5 [2, 20]: 70 pg/mL | IL-5/IFNγ ratio [2, 21]: 199 | IL-5 [2, 21]: 199 pg/mL | secretion of IL-5 (in words) [2]: secretion of IL-5 | IFNγ [3, 16]: 0 pg/mL | IFNγ [3, 17]: 0 pg/mL | IFNγ [3, 18]: 2 pg/mL | IFNγ [3, 19]: 4 pg/mL | IFNγ [3, 20]: 0 pg/mL | IFNγ [3, 21]: 0 pg/mL

ASEQETADATPEKEEPTAAP [Hev b 5 (37-56)]
Proliferation inducing (+) or non-inducing (−) peptide ([1]; P1 T cell line): 37-56 (−) | Oligoclonal proliferative response [1, 4]: 7.1 counts per minute × 10^−3 | Oligoclonal proliferative response [1, 5]: 8.5 counts per minute × 10^−3 | Proliferation inducing (+) or non-inducing (−) peptide ([1]; P2 T cell line): 37-56 (+) | Oligoclonal proliferative response [1, 6]: 18.3 counts per minute × 10^−3 | Oligoclonal proliferative response [1, 7]: 38.8 counts per minute × 10^−3 | Oligoclonal proliferative response [1, 8]: 8.8 counts per minute × 10^−3 | Oligoclonal proliferative response [1, 9]: 2.7 counts per minute × 10^−3 | Proliferation inducing (+) or non-inducing (−) peptide ([1]; P4 T cell line): 37-56 (+) | Oligoclonal proliferative response [1, 10]: 3.0 counts per minute × 10^−3 | Oligoclonal proliferative response [1, 11]: 3.2 counts per minute × 10^−3 | Oligoclonal proliferative response [1, 12]: 1.4 counts per minute × 10^−3 | Oligoclonal proliferative response [1, 13]: 1.1 counts per minute × 10^−3 | Oligoclonal proliferative response [1, 14]: 1.4 counts per minute × 10^−3 | Oligoclonal proliferative response [1, 15]: 0.9 counts per minute × 10^−3 | IL-5 [2, 16]: 0 pg/mL | IL-5 [2, 17]: 0 pg/mL | IL-5/IFNγ ratio [2, 18]: 10.1 | IL-5 [2, 18]: 744 pg/mL | IL-5/IFNγ ratio [2, 19]: 10 | IL-5 [2, 19]: 767 pg/mL | IL-5/IFNγ ratio [2, 20]: 173 | IL-5 [2, 20]: 173 pg/mL | IL-5/IFNγ ratio [2, 21]: 49.3 | IL-5 [2, 21]: 296 pg/mL | secretion of IL-5 (in words) [2]: secretion of IL-5 | IFNγ [3, 16]: 0 pg/mL | IFNγ [3, 17]: 0 pg/mL | IFNγ [3, 18]: 74 pg/mL | IFNγ [3, 19]: 77 pg/mL | IFNγ [3, 20]: 0 pg/mL | IFNγ [3, 21]: 6 pg/mL
